{"source": "patent US8796466B2", "about": "“Hepatitis C virus inhibitors” (Bristol-Myers Squibb Company, priority 2009, dated 2014)", "test_system": "HCV 1b genotype", "experiment": "HCV Replicon assay (HCV 1b genotype)", "type": "cell-based, Hepatitis C virus", "conditions": "Hepatitis C virus, HCV 1b genotype replicon", "how_it_was_run": "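HCV-neo replicon cells, wild-type plus lines carrying NS5A-region mutations, were exposed to compound; luciferase-reporter replicon variants were also used.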", "key": {"[1]": {"conditions": "class symbol, read-out: Range (EC50 values against HCV 1b)"}, "[2]": {"conditions": "Effective 50% inhibitory concentration, read-out: 1b EC50"}}, "note": "Where two headings read alike, the source gives them in different places.", "data": [{"smiles": "COC(=O)N[C@H](C(=O)N1[C@H](c2ncc(-c3ccc(C#Cc4ccc(-c5cnc([C@@H]6C[C@@H]7C[C@@H]7N6C(=O)[C@@H](NC(=O)OC)C(C)C)[nH]5)cc4)cc3)[nH]2)C[C@@H]2C[C@@H]21)C(C)C", "note": "[Example N8, methyl((1S)-1-(((1S,3S,5S)-3-(4-(4-((4-(2-((1S,3S,5S)-2-((2S)-2-((methoxycarbonyl)amino)-3-methylbutanoyl)-2-azabicyclo[3.1.0]hex-3-yl)-1H-imidazol-4-yl)phenyl)ethynyl)phenyl)-1H-imidazol-2-yl)-2-azabicyclo[3.1.0]hex-2-yl)carbonyl)-2-methylpropyl)carbamate]", "values": [{"measurement": "EC50", "setting": "[1]", "result": "10 to 350", "unit": "nM"}]}, {"smiles": "COC(=O)N[C@H](C(=O)N1[C@H](c2ncc(-c3ccc(C#Cc4ccc(-c5cnc([C@@H]6C[C@@H]7C[C@@H]7N6C(=O)[C@@H](NC(=O)OC)C6CCOCC6)[nH]5)cc4)cc3)[nH]2)C[C@@H]2C[C@@H]21)C1CCOCC1", "note": "[Example N9, dimethyl (1,2-ethynediylbis(4,1-phenylene-1H-imidazole-4,2-diyl(1S,3S,5S)-2-azabicyclo[3.1.0]hexane-3,2-diyl((1S)-2-oxo-1-(tetrahydro-2H-pyran-4-yl)-2,1-ethanediyl)))biscarbamate]", "values": [{"measurement": "EC50", "setting": "[1]", "result": "0.002 to 0.099", "unit": "nM"}]}, {"smiles": "CN(C)[C@@H](C(=O)N1CCC[C@H]1c1ncc(-c2ccc(Oc3ccc(-c4cnc([C@@H]5CCCN5C(=O)[C@@H](c5ccccc5)N(C)C)[nH]4)cc3)cc2)[nH]1)c1ccccc1", "note": "[OL-1, (1R)-2-((2S)-2-(4-(4-(4-(2-((2S)-1-((2R)-2-(dimethylamino)-2-phenylacetyl)-2-pyrrolidinyl)-1H-imidazol-5-yl)phenoxy)phenyl)-1H-imidazol-2-yl)-1-pyrrolidinyl)-N,N-dimethyl-2-oxo-1-phenylethanamine]", "values": [{"measurement": "EC50", "setting": "[1]", "result": "1 to 9.9", "unit": "nM"}]}, {"smiles": "O=C([C@H](O)c1ccccc1)N1CCC[C@H]1c1nc(-c2ccc(Oc3ccc(-c4cnc([C@@H]5CCCN5C(=O)[C@H](O)c5ccccc5)[nH]4)cc3)cc2)c[nH]1", "note": "[OL-2, (1R)-2-((2S)-2-(4-(4-(4-(2-((2S)-1-((2R)-2-hydroxy-2-phenylacetyl)-2-pyrrolidinyl)-1H-imidazol-5-yl)phenoxy)phenyl)-1H-imidazol-2-yl)-1-pyrrolidinyl)-2-oxo-1-phenylethanol]", "values": [{"measurement": "EC50", "setting": "[2]", "result": 9.1, "unit": "nM"}, {"measurement": "EC50", "setting": "[1]", "result": "1 to 9.9", "unit": "nM"}]}, {"smiles": "COC(=O)N[C@@H](C(=O)N1CCC[C@H]1c1nc(-c2ccc(Oc3ccc(-c4c[nH]c([C@@H]5CCCN5C(=O)[C@H](NC(=O)OC)c5ccccc5)n4)cc3)cc2)c[nH]1)c1ccccc1", "note": "[OL-3, dimethyl (oxybis(4,1-phenylene-1H-imidazole-4,2-diyl(2S)-2,1-pyrrolidinediyl((1R)-2-oxo-1-phenyl-2,1-ethanediyl)))biscarbamate]", "values": [{"measurement": "EC50", "setting": "[1]", "result": "1 to 9.9", "unit": "nM"}]}, {"smiles": "CN(C)[C@@H](C(=O)N1CCC[C@H]1c1ncc(-c2ccc(Oc3cccc(-c4cnc([C@@H]5CCCN5C(=O)[C@@H](c5ccccc5)N(C)C)[nH]4)c3)cc2)[nH]1)c1ccccc1", "note": "[OL-4, (1R)-2-((2S)-2-(4-(3-(4-(2-((2S)-1-((2R)-2-(dimethylamino)-2-phenylacetyl)-2-pyrrolidinyl)-1H-imidazol-4-yl)phenoxy)phenyl)-1H-imidazol-2-yl)-1-pyrrolidinyl)-N,N-dimethyl-2-oxo-1-phenylethanamine]", "values": [{"measurement": "EC50", "setting": "[2]", "result": 0.07, "unit": "nM"}, {"measurement": "EC50", "setting": "[1]", "result": "0.002 to 0.099", "unit": "nM"}]}, {"smiles": "O=C([C@H](O)c1ccccc1)N1CCC[C@H]1c1nc(-c2ccc(Oc3cccc(-c4c[nH]c([C@@H]5CCCN5C(=O)[C@H](O)c5ccccc5)n4)c3)cc2)c[nH]1", "note": "[OL-5, (1R)-2-((2S)-2-(4-(3-(4-(2-((2S)-1-((2R)-2-hydroxy-2-phenylacetyl)-2-pyrrolidinyl)-1H-imidazol-4-yl)phenoxy)phenyl)-1H-imidazol-2-yl)-1-pyrrolidinyl)-2-oxo-1-phenylethanol]", "values": [{"measurement": "EC50", "setting": "[2]", "result": 80, "unit": "nM"}, {"measurement": "EC50", "setting": "[1]", "result": "10 to 350", "unit": "nM"}]}, {"smiles": "COC(=O)N[C@@H](C(=O)N1CCC[C@H]1c1nc(-c2ccc(Oc3cccc(-c4c[nH]c([C@@H]5CCCN5C(=O)[C@H](NC(=O)OC)c5ccccc5)n4)c3)cc2)c[nH]1)c1ccccc1", "note": "[OL-6, methyl ((1R)-2-((2S)-2-(4-(3-(4-(2-((2S)-1-((2R)-2-((methoxycarbonyl)amino)-2-phenylacetyl)-2-pyrrolidinyl)-1H-imidazol-4-yl)phenoxy)phenyl)-1H-imidazol-2-yl)-1-pyrrolidinyl)-2-oxo-1-phenylethyl)carbamate]", "values": [{"measurement": "EC50", "setting": "[1]", "result": "0.002 to 0.099", "unit": "nM"}]}, {"smiles": "CN(C)[C@@H](C(=O)N1CCC[C@H]1c1ncc(-c2ccc(COc3ccc(-c4cnc([C@@H]5CCCN5C(=O)[C@@H](c5ccccc5)N(C)C)[nH]4)cc3)cc2)[nH]1)c1ccccc1", "note": "[OL-7, (1R)-2-((2S)-2-(4-(4-((4-(2-((2S)-1-((2R)-2-(dimethylamino)-2-phenylacetyl)-2-pyrrolidinyl)-1H-imidazol-4-yl)benzyl)oxy)phenyl)-1H-imidazol-2-yl)-1-pyrrolidinyl)-N,N-dimethyl-2-oxo-1-phenylethanamine]", "values": [{"measurement": "EC50", "setting": "[1]", "result": "0.002 to 0.099", "unit": "nM"}]}, {"smiles": "COC(=O)N[C@@H](C(=O)N1CCC[C@H]1c1nc(-c2ccc(COc3ccc(-c4c[nH]c([C@@H]5CCCN5C(=O)[C@H](NC(=O)OC)c5ccccc5)n4)cc3)cc2)c[nH]1)c1ccccc1", "note": "[OL-8, methyl ((1R)-2-((2S)-2-(4-(4-((4-(2-((2S)-1-((2R)-2-((methoxycarbonyl)amino)-2-phenylacetyl)-2-pyrrolidinyl)-1H-imidazol-4-yl)benzyl)oxy)phenyl)-1H-imidazol-2-yl)-1-pyrrolidinyl)-2-oxo-1-phenylethyl)carbamate]", "values": [{"measurement": "EC50", "setting": "[1]", "result": "0.002 to 0.099", "unit": "nM"}]}, {"smiles": "CN(C)[C@@H](C(=O)N1CCC[C@H]1c1ncc(-c2ccc(CCc3ccc(-c4cnc([C@@H]5CCCN5C(=O)[C@@H](c5ccccc5)N(C)C)[nH]4)cc3)cc2)[nH]1)c1ccccc1", "note": "[OL-9, (1R)-2-((2S)-2-(4-(4-(2-(4-(2-((2S)-1-((2R)-2-(dimethylamino)-2-phenylacetyl)-2-pyrrolidinyl)-1H-imidazol-5-yl)phenyl)ethyl)phenyl)-1H-imidazol-2-yl)-1-pyrrolidinyl)-N,N-dimethyl-2-oxo-1-phenylethanamine]", "values": [{"measurement": "EC50", "setting": "[1]", "result": "0.002 to 0.099", "unit": "nM"}]}, {"smiles": "O=C([C@H](O)c1ccccc1)N1CCC[C@H]1c1nc(-c2ccc(CCc3ccc(-c4c[nH]c([C@@H]5CCCN5C(=O)[C@H](O)c5ccccc5)n4)cc3)cc2)c[nH]1", "note": "[OL-10, (1R,1′R)-2,2′-(1,2-ethanediylbis(4,1-phenylene-1H-imidazole-4,2-diyl(2S)-2,1-pyrrolidinediyl))bis(2-oxo-1-phenylethanol)]", "values": [{"measurement": "EC50", "setting": "[1]", "result": "0.002 to 0.099", "unit": "nM"}]}, {"smiles": "COC(=O)N[C@@H](C(=O)N1CCC[C@H]1c1nc(-c2ccc(CCc3ccc(-c4c[nH]c([C@@H]5CCCN5C(=O)[C@H](NC(=O)OC)c5ccccc5)n4)cc3)cc2)c[nH]1)c1ccccc1", "note": "[OL-11, dimethyl (1,2-ethanediylbis(4,1-phenylene-1H-imidazole-4,2-diyl(2S)-2,1-pyrrolidinediyl((1R)-2-oxo-1-phenyl-2,1-ethanediyl)))biscarbamate]", "values": [{"measurement": "EC50", "setting": "[1]", "result": "0.002 to 0.099", "unit": "nM"}]}, {"smiles": "CCNC(=O)N[C@@H](C(=O)N1CCC[C@H]1c1nc(-c2ccc(CCc3ccc(-c4c[nH]c([C@@H]5CCCN5C(=O)[C@H](NC(=O)NCC)c5ccccc5)n4)cc3)cc2)c[nH]1)c1ccccc1", "note": "[OL-12, N′,N′″-(1,2-ethanediylbis(4,1-phenylene-1H-imidazole-4,2-diyl(2S)-2,1-pyrrolidinediyl((1R)-2-oxo-1-phenyl-2,1-ethanediyl)))bis(1-ethylurea)]", "values": [{"measurement": "EC50", "setting": "[1]", "result": "0.002 to 0.099", "unit": "nM"}]}, {"smiles": "O=C(NC1CCCC1)N[C@@H](C(=O)N1CCC[C@H]1c1nc(-c2ccc(CCc3ccc(-c4cnc([C@@H]5CCCN5C(=O)[C@H](NC(=O)NC5CCCC5)c5ccccc5)[nH]4)cc3)cc2)c[nH]1)c1ccccc1", "note": "[OL-13, 1-cyclopentyl-3-((1R)-2-((2S)-2-(4-(4-(2-(4-(2-((2S)-1-((2R)-2-((cyclopentylcarbamoyl)amino)-2-phenylacetyl)-2-pyrrolidinyl)-1H-imidazol-5-yl)phenyl)ethyl)phenyl)-1H-imidazol-2-yl)-1-pyrrolidinyl)-2-oxo-1-phenylethyl)urea]", "values": [{"measurement": "EC50", "setting": "[1]", "result": "0.002 to 0.099", "unit": "nM"}]}, {"smiles": "CN(C)[C@@H](C(=O)N1CCC[C@H]1c1ncc(-c2ccc(COCc3ccc(-c4cnc([C@@H]5CCCN5C(=O)[C@@H](c5ccccc5)N(C)C)[nH]4)cc3)cc2)[nH]1)c1ccccc1", "note": "[OL-14, (1R)-2-((2S)-2-(4-(4-(((4-(2-((2S)-1-((2R)-2-(dimethylamino)-2-phenylacetyl)-2-pyrrolidinyl)-1H-imidazol-5-yl)benzyl)oxy)methyl)phenyl)-1H-imidazol-2-yl)-1-pyrrolidinyl)-N,N-dimethyl-2-oxo-1-phenylethanamine]", "values": [{"measurement": "EC50", "setting": "[1]", "result": "0.1 to 0.99", "unit": "nM"}]}, {"smiles": "O=C([C@H](O)c1ccccc1)N1CCC[C@H]1c1nc(-c2ccc(COCc3ccc(-c4cnc([C@@H]5CCCN5C(=O)[C@H](O)c5ccccc5)[nH]4)cc3)cc2)c[nH]1", "note": "[OL-15, (1R)-2-((2S)-2-(4-(4-(((4-(2-((2S)-1-((2R)-2-hydroxy-2-phenylacetyl)-2-pyrrolidinyl)-1H-imidazol-5-yl)benzyl)oxy)methyl)phenyl)-1H-imidazol-2-yl)-1-pyrrolidinyl)-2-oxo-1-phenylethanol]", "values": [{"measurement": "EC50", "setting": "[2]", "result": 1.1, "unit": "nM"}, {"measurement": "EC50", "setting": "[1]", "result": "1 to 9.9", "unit": "nM"}]}, {"smiles": "COC(=O)N[C@@H](C(=O)N1CCC[C@H]1c1nc(-c2ccc(COCc3ccc(-c4c[nH]c([C@@H]5CCCN5C(=O)[C@H](NC(=O)OC)c5ccccc5)n4)cc3)cc2)c[nH]1)c1ccccc1", "note": "[OL-16, dimethyl (oxybis(methylene-4,1-phenylene-1H-imidazole-4,2-diyl(2S)-2,1-pyrrolidinediyl((1R)-2-oxo-1-phenyl-2,1-ethanediyl)))biscarbamate]", "values": [{"measurement": "EC50", "setting": "[1]", "result": "0.002 to 0.099", "unit": "nM"}]}, {"smiles": "CNC(=O)N[C@@H](C(=O)N1CCC[C@H]1c1nc(-c2ccc(COCc3ccc(-c4cnc([C@@H]5CCCN5C(=O)[C@H](NC(=O)NC)c5ccccc5)[nH]4)cc3)cc2)c[nH]1)c1ccccc1", "note": "[OL-17, 1-methyl-3-((1R)-2-((2S)-2-(4-(4-(((4-(2-((2S)-1-((2R)-2-((methylcarbamoyl)amino)-2-phenylacetyl)-2-pyrrolidinyl)-1H-imidazol-5-yl)benzyl)oxy)methyl)phenyl)-1H-imidazol-2-yl)-1-pyrrolidinyl)-2-oxo-1-phenylethyl)urea]", "values": [{"measurement": "EC50", "setting": "[1]", "result": "0.002 to 0.099", "unit": "nM"}]}]}
